The values that follow come from patent publication US6576639B1, “Compounds for the inhibition of farnesyl protein transferase” (Schering Corporation, priority 1997, dated 2003).

The target of data set [1] is farnesyl protein transferase (Homo sapiens, UniProt P49354+P49356). Briefly: FPT IC50 (inhibition of farnesyl protein transferase, in vitro enzyme assay, per WO 95/10516). The data set is classed as biochemical. To be noted: for IC50: in vitro enzyme assay. As to the method: (§1) FPT IC50 (inhibition of farnesyl protein transferase, in vitro enzyme assay) was determined following the assay procedures described in WO 95/10516, published Apr. 20, 1995. GGPT IC50 (inhibition of geranylgeranyl protein transferase, in vitro enzyme assay), COS Cell IC50 (Cell-Based Assay), Cell Mat Assay, and anti-tumor activity (in vivo anti-tumor studies) could be determined by the assay procedures described in WO 95/10516. The disclosure of WO 95/10516 is incorporated herein by reference thereto.

The test system of the next data set is Human tumor cells. Briefly: Soft Agar Assay (anchorage-independent growth). The data set is classed as cell-based. As for the experimental part: Anchorage-independent growth is a characteristic of tumorigenic cell lines. Human tumor cells can be suspended in growth medium containing 0.3% agarose and an indicated concentration of a farnesyl transferase inhibitor. The solution can be overlayed onto growth medium solidified with 0.6% agarose containing the same concentration of farnesyl transferase inhibitor as the top layer. After the top layer is solidified, plates can be incubated for 10-16 days at 37° C. under 5% CO2 to allow colony outgrowth. After incubation, the colonies can be stained by overlaying the agar with a solution of MTT (3-[4,5-dimethyl-thiazol-2-yl]-2,5-diphenyltetrazolium bromide, Thiazolyl blue) (1 mg/mL in PBS). Colonies can be counted and the IC50's can be determined.

In the next data set the test system is COS Cell. Briefly: COS Cell IC50 (Cell-Based Assay, per WO 95/10516). As for the experimental part: as §1
A further data set deals with T1, human FPT (Homo sapiens, UniProt P49354+P49356).
T1 construct: made in house; host or cells: Baculovirus/Sf-9
Briefly: FPT pM IC50 Assay. The data set is classed as biochemical. The settings on record: 30 pM human FPT, biotin-CVLS substrate, 37° C., 1 hour. As for the experimental part:
The enzymatic reaction is performed in 50 mM Tris, 5 μM ZnCl2, 5 mM MgCl2, 0.01% Triton X-100, 5 mM dithiolthreitol (DTT), pH 7.7 (Buffer R) at 37° C. for 1 hour. The purified human FPT (>95% pure) was derived from a Baculovirus/Sf-9 expression system. The peptide substrate used was biotin-CVLS (SynPep Corp., Dublin, Calif.) and (1-^3H)-FPP (21.5 Ci/mmol) was obtained from New England Nuclear Life Science Products (Boston, Mass.). Compounds were initially dissolved to a final concentration of 4 mg/ml in 100% DMSO and then to 0.25 μg/ml in 100% DMSO. Subsequent dilutions of the compound were performed in Buffer R.
The enzymatic reaction is performed in a final volume of 100 μl. Reactions are carried out in a 96 well plate format. […] The reaction is stopped using 150 μl of the Stop Solution consisting of 1.3 mg/ml scintillation beads (strepavidin-coated scintillation proximity beads from Amersham (Arlington Heights, Ill.), 250 mM EDTA, pH 8.0 and 0.5% BSA. The radioactivity is measured after 20 minutes at room temperature.
Compounds are evaluated for their ability to inhibit the reaction by measuring the concentration-dependent percent inhibition of the reaction. […] The enzymatic activity was recorded by measuring the CPM/well using a Wallac 1204 Betaplate BS liquid scintillation counter. […]

As usually defined, the IC50 is the midpoint of a concentration-inhibition curve. Read a low IC50 as inhibition by little substance. In general, melting point refers to the temperature, or range, at which the solid turns liquid.

farnesyl protein transferase, sequence (P49356 whole entry, one chain of several): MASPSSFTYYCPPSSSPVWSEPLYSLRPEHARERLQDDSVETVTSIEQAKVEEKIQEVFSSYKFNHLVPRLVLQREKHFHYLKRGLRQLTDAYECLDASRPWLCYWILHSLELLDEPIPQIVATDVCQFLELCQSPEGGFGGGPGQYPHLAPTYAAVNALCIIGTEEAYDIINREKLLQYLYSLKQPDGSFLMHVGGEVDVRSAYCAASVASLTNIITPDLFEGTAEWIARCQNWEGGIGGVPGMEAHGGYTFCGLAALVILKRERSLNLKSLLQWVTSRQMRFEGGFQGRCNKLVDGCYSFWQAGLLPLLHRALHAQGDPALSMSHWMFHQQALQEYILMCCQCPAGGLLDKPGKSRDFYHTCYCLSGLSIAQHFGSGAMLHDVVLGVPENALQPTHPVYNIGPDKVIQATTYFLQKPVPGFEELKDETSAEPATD

Regarding `NC(=O)N1CCC(CC(=O)N2CCN(C3c4ccc(Cl)cc4CCc4cc(Br)c[n+]([O-])c43)CC2)CC1` (racemic) [Example 9, (±) 4-[2-[(3-Bromo-8-chloro-6,11-dihydro-5H-benzo[5,6]cyclohepta [1,2-b]pyridin-11-yl)-1-piperazinyl]-2-oxoethyl]-1-piperidinecarboxamide N1-oxide], the 50% inhibitory concentration (IC50) in data set [1] stood at 23 nM.

In the case of `NC(=O)N1CCC(CC(=O)N2CCC(C3c4c(Br)cc(Cl)cc4CCc4cc(Br)c[n+]([O-])c43)CC2)CC1` (centres unmarked) [Compound 54.0], the FPT percent inhibition in data set [1] (@150 nM) came out at 42%.

Consider `NC(=O)N1CCC(CC(=O)N2CCC([C@@H]3c4c(Br)cc(Cl)cc4CCc4cc(Br)c[n+]([O-])c43)CC2)CC1` [Example 2, (+)-4-[2-[4-(3,10-Dibromo-8-chloro-6,11-dihydro-5H-benzo [5,6]cyclohepta[1,2-b]pyridin-11(R)-YL)-1-piperidinyl]-2-oxoethyl]-1-piperidinecarboxamide N-oxide], for which the figures for the IC50 (in the data set on Human tumor cells; in data set [1]; in the data set with COS Cell) were 45 nM, 1.4 nM and 9 nM, respectively.

In the case of `O=C(Cc1cc[n+]([O-])cc1)N1CCC([C@@H]2c3c(Br)cc(Cl)cc3CCc3cc(Br)c[n+]([O-])c32)CC1` [Example 3], the 50% inhibitory concentration (IC50) in the data set on Human tumor cells was 25 nM; in data set [1], 0.7 nM; in the data set with COS Cell, 11.5 nM.

In turn, `NC(=O)N1CCC(CC(=O)N2CCC([C@H]3c4ccc(Cl)c(Br)c4CCc4cc(Br)c[n+]([O-])c43)CC2)CC1` [Example 4] had an IC50 in data set [1] of 18 nM. In other words, the double-digit nanomolar range.

Regarding `O=C(Cc1cc[n+]([O-])cc1)N1CCC([C@H]2c3ccc(Cl)c(Br)c3CCc3cc(Br)c[n+]([O-])c32)CC1` [Example 5, (−)-4-(8-Chloro-3,7-Dibromo-6,11-Dihydro-5H-Benzo[5,6]Cyclohepta [1,2-b]Pyridin-11-yl)-1-(4-Pyridinylacetyl)Piperidine N1-Oxide, N4-Oxide], the IC50 in data set [1] turned out to be 28 nM.

Regarding `O=C(Cc1cc[n+]([O-])cc1)N1CCC(C2c3ccc(Cl)cc3C=Cc3cc(Br)c[n+]([O-])c32)CC1` (centres unmarked) [Example 6, 4-(3-Bromo-8-Chloro-11H-Benzo[5.6]Cyclohepta[1,2-b]Pyridi-11-yl) -1-(4-Pyridinylacetyl)Piperidine N1-Oxide, N4-Oxide], the 50% inhibitory concentration (IC50) in data set [1] was 63 nM. Compared with the last compound, the IC50 is about 2.2-fold higher.

`O=C(Cc1cc[n+]([O-])cc1)N1CCN([C@@H]2c3ccc(Cl)cc3CCc3cc(Br)c[n+]([O-])c32)CC1` [Example 7]: the 50% inhibitory concentration (IC50) against human FPT is 440 pM; with Human tumor cells it was 183 nM; in data set [1], 6.3 nM; with COS Cell, 85 nM.

Turning to `O=C(Cc1cc[n+]([O-])cc1)N1CCN([C@H]2c3ccc(Cl)cc3CCc3cc(Br)c[n+]([O-])c32)CC1` [Example 8], in data set [1] (@ 170 (concentration unit not given)), the FPT percent inhibition is 39% @ 170.

In the case of `NC(=O)N1CCC(CC(=O)N2CCN([C@@H]3c4ccc(Cl)cc4CCc4cc(Br)c[n+]([O-])c43)CC2)CC1` [Example 10, (+) 4-[2-[(3-Bromo-8-chloro-6,11-dihydro-5H-benzo[5,6]cyclo-hepta [1,2-b]pyridin-11R-yl)-1-piperazinyl]-2-oxoethyl]-1-piperidinecarboxamide N1-oxide], in data set [1], the midpoint of inhibition, the IC50, lay at 12 nM.

Turning to `NC(=O)N1CCC(CC(=O)N2CCN([C@H]3c4ccc(Cl)cc4CCc4cc(Br)c[n+]([O-])c43)CC2)CC1` [Example 11, (−) 4-[2-[(3-Bromo-8-chloro-6,11-dihydro-5H-benzo[5,6]cyclo-hepta [1,2-b]pyridin-11S-yl)-1-piperazinyl]-2-oxoethyl]-1-piperidinecarboxamide N1-oxide], the FPT percent inhibition in data set [1] (@ 160 (concentration unit not given)) is reported as 24% @ 160.

Turning to `NC(=O)N1CCC(CC(=O)N2CCC([C@@H]3c4ccc(Cl)cc4CCc4cc(Br)c[n+]([O-])c43)CC2)CC1` [Example 12], the melting point lay in the range of 146.8 to 147.4 °C. In data set [1], this compound showed a half-maximal inhibitory concentration (IC50) of 35 nM.

Consider `NC(=O)N1CCC(CC(=O)N2CCC([C@H]3c4ccc(Cl)cc4CCc4cc(Br)c[n+]([O-])c43)CC2)CC1` [Example 13], for which the melting point is 120 to 121 °C. In addition, inhibition in data set [1] was half-maximal at 174 nM (IC50).

Regarding `O=C(Cc1cc[n+]([O-])cc1)N1CCC([C@H]2c3ccc(Cl)cc3C=Cc3cc(Br)c[n+]([O-])c32)CC1` [Example 14], the melting point lay in the range of 109 to 110 °C. In data set [1] (@ 180 (concentration unit not given)), the FPT percent inhibition was determined as 25% @ 180.

For the compound `O=C(Cc1cc[n+]([O-])cc1)N1CCC([C@@H]2c3ccc(Cl)cc3C=Cc3cc(Br)c[n+]([O-])c32)CC1` [Example 15], the melting point was in the range of 125.5 to 126.3 °C. The same compound registered an IC50 in data set [1] of 19 nM.
